Holding throughout (test): inhibition of tumour cell growth, NCI panel, 48 h
In experiment [1] the test system is HOP-18.
For experiment [2], the system named is LXFL 529.
Experiment [3] deals with DMS-273.
The subject of experiment [4] is RXF 631.
Experiment [5] relates to DMS-114.
Experiment [6] concerns KM-20L2.
In experiment [7] the test system is DLD-1.
For experiment [8], the system named is SNB-78.
Experiment [9] concerns XF498.

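Five compound concentrations were applied to cells in 96-well plates for 48 hours; endpoints were derived by simple linear interpolation of the resulting dose-response curve. GI50 is the concentration that inhibits growth by half.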 The source made the active and inactive calls. Cut-off read from the data, not from the text of the source: active = GI50 up to about 1.1 µM and inactive = higher.

`CCCCCCCCCCCCCCCCCC(=O)NCCCNCCCNC(=O)CCCCCCCCCCCCCCCCC`: the GI50 in experiment [1], in experiment [2], in experiment [3], in [4], in experiment [5] and in experiment [6] was > 100 µM (inactive) throughout. Besides, in [7], the GI50 was > 100 µM (inactive).

As for `COP1(=O)CC2C(Cl)(Cl)C2(C)C1` (stereo not drawn), the GI50 in [1], in experiment [2], in [8], in [3], in experiment [5] and in [6] was > 100 µM (inactive) throughout. In addition, the GI50 in [7] and in experiment [9] was > 100 µM (inactive) throughout.

In the case of `CCc1nc2ccc(NCCN(C)C)c3c(=O)c4ccccc4n1c23`, the GI50 in experiment [1] was 0.891 µM (active); in experiment [2], 0.82 µM (active); in [8] it was 1.53 µM (inactive); in experiment [5], 1.49 µM (inactive); in experiment [6], 0.741 µM (active); in [7] it was 0.533 µM (active).

As to `O/N=C1/CCCC/C1=C\c1ccc(Cl)c(Cl)c1`, the GI50 is 22.1 µM (inactive) in experiment [1]; 19.7 µM (inactive) in experiment [2]; 22.9 µM (inactive) in experiment [8]; 24.7 µM (inactive) in experiment [3]; 19.3 µM (inactive) in experiment [5]; 20.5 µM (inactive) in experiment [6]. In addition, the GI50 was 32.9 µM (inactive) in experiment [7] and 19.8 µM (inactive) in [9].

Turning to `O=C(Nc1ccccc1Br)c1cccc([N+](=O)[O-])c1O`, the GI50 is 1.66 µM (inactive) in [1]; 3.15 µM (inactive) in experiment [2]; 5.09 µM (inactive) in [8]; 3.53 µM (inactive) in experiment [3]; 17.7 µM (inactive) in experiment [4]; 3.18 µM (inactive) in experiment [5]. Also, the GI50 in [6] was 4.09 µM (inactive); in experiment [7], 4.32 µM (inactive).

On to `O=C1C2=C(CCCC2)Nc2cccc3ncn1c23`, for which the GI50 in experiment [1] is 10.3 µM (inactive); in experiment [2] it was > 100 µM (inactive); in experiment [8], > 100 µM (inactive); in experiment [3], > 100 µM (inactive); in experiment [5] it was > 100 µM (inactive); in [6], > 100 µM (inactive). In addition, the GI50 in [7] is > 100 µM (inactive).

Regarding `COc1ccc2[nH]c3c(O)nncc3c2c1`, the GI50 in experiment [1], in experiment [2], in [8], in [3], in experiment [5] and in experiment [7] was > 100 µM (inactive) in each case.

As for `Clc1ccc(C2=NOC3C4CCC(C4)C23)cc1` (stereo not drawn), the GI50 in [1], in experiment [2], in experiment [8], in experiment [3] and in [7] was > 100 µM (inactive) each time.

Turning to `Cc1c(C(Cc2ccccc2N(C)C(=O)/C=C\C(=O)O)c2c[nH]c3ccccc23)c2ccccc2n1C` (stereo not drawn), the GI50 in experiment [2] is 12.7 µM (inactive); in [8], 21.1 µM (inactive); in experiment [3], 17.1 µM (inactive); in experiment [4], 14.2 µM (inactive); in experiment [5] it was 14.2 µM (inactive); in [6] it was 18.1 µM (inactive). In addition, the GI50 was 18.2 µM (inactive) in experiment [7] and 21 µM (inactive) in experiment [9].

Take `CC1=C(C(=O)NCc2ccccc2)C(c2ccccc2C)C(C(=O)NCc2ccccc2)=C(C)N1`: the GI50 was > 53 µM (inactive) in experiment [1]; 29.5 µM (inactive) in experiment [2]; 33.6 µM (inactive) in experiment [8]; 27.5 µM (inactive) in experiment [3]; 42.1 µM (inactive) in [4]; 29.6 µM (inactive) in experiment [5]. The GI50 in experiment [6] was 28.4 µM (inactive); in experiment [7], 20.9 µM (inactive).

`Nc1ccc2c(c1)Oc1c(F)c(F)cc3c(=O)c(C(=O)O)cn-2c13`: the GI50 in experiment [1] was 51.5 µM (inactive); in experiment [2], 41.5 µM (inactive); in experiment [5], > 100 µM (inactive); in [6], 53.6 µM (inactive); in experiment [7], 43.9 µM (inactive).

Take `Cc1c(Cl)ccc2c1NC(=O)C2(O)C1Cc2ccccc2C1=O` (stereo not drawn): the GI50 in experiment [1] is > 100 µM (inactive); in experiment [2], 41.1 µM (inactive); in experiment [8] it was > 100 µM (inactive); in experiment [5], 53.6 µM (inactive); in experiment [6] it was > 100 µM (inactive); in experiment [7] it was > 100 µM (inactive).

With `CC(=O)OC1=C2CC3(C)OC(=O)CC(C)(C)C3=CC=C2C=C(C(C)C)C1=O` (stereo not drawn), the GI50 in experiment [1] was 1.16 µM (inactive); in [2], 0.157 µM (active); in experiment [8] it was 0.282 µM (active); in [3], 0.916 µM (active); in experiment [4], 0.723 µM (active); in experiment [5] it was 0.366 µM (active). In addition, the GI50 was 1.62 µM (inactive) in experiment [6] and 0.203 µM (active) in experiment [7].

For `[N-]=[N+]=NC(c1cn(C2CC(O)C(CO)O2)c(=O)[nH]c1=O)C(Cl)Br` (stereo not drawn), the GI50 in [1] is 47.2 µM (inactive); in experiment [2], > 100 µM (inactive); in experiment [8], > 100 µM (inactive); in experiment [3], > 100 µM (inactive); in [5], > 100 µM (inactive); in experiment [6], > 100 µM (inactive). For the same compound, the GI50 in experiment [7] is > 100 µM (inactive).

As for `COC1=CC(=C(C#N)/C(=N\c2ccccc2)SC)C=C(OC)C1=O`, the GI50 was > 100 µM (inactive) in [1]; 17.5 µM (inactive) in [2]; 67.9 µM (inactive) in experiment [8]; 36.1 µM (inactive) in experiment [3]; > 100 µM (inactive) in experiment [4]; 24.5 µM (inactive) in experiment [7].

As to `CN(C)CCCNC(=O)N/N=C/c1cccc([N+](=O)[O-])c1`, the GI50 in [1], in experiment [2], in [8], in [3], in [5] and in experiment [7] was > 100 µM (inactive) in each case. The GI50 in experiment [9] is 5.93 µM (inactive).

As for `COc1ccc(/C=C2/C[N+](C)(C)C/C(=C/c3ccc(OC)cc3)C2=O)cc1`, the GI50 was > 100 µM (inactive) in experiment [1]; 21.9 µM (inactive) in [2]; 38.5 µM (inactive) in experiment [8]; 18.3 µM (inactive) in experiment [3]; 13.4 µM (inactive) in experiment [5]; 50 µM (inactive) in [6]. In addition, the GI50 was 28.7 µM (inactive) in experiment [7] and 88.7 µM (inactive) in experiment [9].

For `[N-]=[N+]=NC1CC(n2cc(COCC(F)(F)F)c(=O)[nH]c2=O)OC1CO` (stereo not drawn), the GI50 in [2], in experiment [8], in [3], in experiment [5], in experiment [6] and in [7] was > 100 µM (inactive) throughout. Also, the GI50 in experiment [9] was > 100 µM (inactive).

With `Cc1cc2c(cc1C)[n+]([O-])c(C(=O)/C=C/c1ccc(Cl)cc1)c(C)[n+]2[O-]`, the GI50 in experiment [1] is 25.2 µM (inactive); in experiment [2], 28.2 µM (inactive); in experiment [8], > 100 µM (inactive); in experiment [3] it was 33.1 µM (inactive); in experiment [5], 29.1 µM (inactive); in [6], 36.6 µM (inactive). The GI50 is 28.8 µM (inactive) in experiment [7] and 21.6 µM (inactive) in [9].

Source of the values: ChEMBL document CHEMBL1201862, “PubChem BioAssay data set” (2004).
